# Patent US8222246B2, “Substituted isoxazoles” (Hoffmann-La Roche Inc., priority 2009, dated 2012)
# Molecular target: T1, GABA A α5 (α5β3γ2) (Homo sapiens, UniProt P18507+P31644)
# T1 construct: expressed in transfected cells; host or cells: HEK293 (transiently transfected), membranes
# Assay: [3H]flumazenil competition binding assay, human GABA A α5 receptors in HEK293 cells
# Conditions: competition for [3H]flumazenil (0.5 nM); HEK293 cells expressing human (transiently transfected) receptors; means of two determinations; read-out: hKi GABA A α5
# Description: Membrane Preparation and Binding Assay
# The affinity of compounds at GABA A receptor subtypes was measured by competition for [3H]flumazenil (85 Ci/mmol; Roche) binding to HEK293 cells expressing rat (stably transfected) or human (transiently transfected) receptors of composition α1β3γ2, α2β3γ2, α3β3γ2 and α5β3γ2.
# Cell pellets were suspended in Krebs-tris buffer (4.8 mM KCl, 1.2 mM CaCl2, 1.2 mM MgCl2, 120 mM NaCl, 15 mM Tris; pH 7.5; binding assay buffer), homogenized by polytron for ca. 20 sec on ice and centrifuged for 60 min at 4° C. (50000 g; Sorvall, rotor: SM24=20000 rpm). The cell pellets were resuspended in Krebs-tris buffer and homogenized by polytron for ca. 15 sec on ice. Protein was measured (Bradford method, Bio-Rad) and aliquots of 1 mL were prepared and stored at −80° C.
# Radioligand binding assays were carried out in a volume of […] (96-well plates) which contained […] of cell membranes, [3H]flumazenil at a concentration of 1 nM for α1, α2, α3 subunits and 0.5 nM for α5 subunits and the test compound in the range of […]. Nonspecific binding was defined by 10^−5 M diazepam and typically represented less than 5% of the total binding. Assays were incubated to equilibrium for 1 hour at 4° C. and harvested onto GF/C uni-filters (Packard) by filtration using a Packard harvester and washing with ice-cold wash buffer (50 mM Tris; pH 7.5). After drying, filter-retained radioactivity was detected by liquid scintillation counting. Ki values were calculated using Excel-Fit (Microsoft) and are the means of two determinations.
# Representative test results, obtained by the above described assay measuring binding affinity to HEK293 cells expressing human (h) receptors, are shown in table 1 below.
row,SMILES,Ki
1,"O=C(NCC(F)(F)F)c1ccc(OCc2c(-c3ccc(F)c(F)c3)noc2CO)nc1 [Example 31, 6-[3-(3,4-Difluoro-phenyl)-5-hydroxymethyl-isoxazol-4-ylmethoxy]-N-(2,2,2-trifluoro-ethyl)-nicotinamide]",2.7 nM
2,"CC(NC(=O)c1ccc(OCc2c(-c3ccc(F)c(F)c3)noc2CO)nc1)C(F)(F)F (centres unmarked) [Example 32, 6-[3-(3,4-Difluoro-phenyl)-5-hydroxymethyl-isoxazol-4-ylmethoxy]-N-(2,2,2-trifluoro-1-methyl-ethyl)-nicotinamide]",1.8 nM
3,"O=C(NC1CC1)c1ccc(OCc2c(-c3ccc(F)c(F)c3)noc2CO)nc1 [Example 33, N-Cyclopropyl-6-[3-(3,4-difluoro-phenyl)-5-hydroxymethyl-isoxazol-4-ylmethoxy]-nicotinamide]",3.1 nM
4,"CC(C)(CO)NC(=O)c1ccc(OCc2c(-c3ccc(F)c(F)c3)noc2CO)nc1 [Example 34, 6-[3-(3,4-Difluoro-phenyl)-5-hydroxymethyl-isoxazol-4-ylmethoxy]-N-(2-hydroxy-1,1-dimethyl-ethyl)-nicotinamide]",13.6 nM
5,"O=C(NCC(F)(F)C(F)(F)F)c1ccc(OCc2c(-c3ccc(F)c(F)c3)noc2CO)nc1 [Example 35, 6-[3-(3,4-Difluoro-phenyl)-5-hydroxymethyl-isoxazol-4-ylmethoxy]-N-(2,2,3,3,3-pentafluoro-propyl)-nicotinamide]",6.8 nM
6,"COCCNC(=O)c1ccc(OCc2c(-c3ccc(F)c(F)c3)noc2CO)nc1 [Example 36, 6-[3-(3,4-Difluoro-phenyl)-5-hydroxymethyl-isoxazol-4-ylmethoxy]-N-(2-methoxy-ethyl)-nicotinamide]",7.7 nM
7,"CC[C@H](CO)NC(=O)c1ccc(OCc2c(-c3ccc(F)c(F)c3)noc2CO)nc1 [Example 37, 6-[3-(3,4-Difluoro-phenyl)-5-hydroxymethyl-isoxazol-4-ylmethoxy]-N-([R]-1-hydroxymethyl-propyl)-nicotinamide]",4.4 nM
8,"CC[C@@H](CO)NC(=O)c1ccc(OCc2c(-c3ccc(F)c(F)c3)noc2CO)nc1 [Example 38, 6-[3-(3,4-Difluoro-phenyl)-5-hydroxymethyl-isoxazol-4-ylmethoxy]-N-([S]-1-hydroxymethyl-propyl)-nicotinamide]",1.3 nM
9,"Cn1cc(NC(=O)c2ccc(OCc3c(-c4ccc(F)c(F)c4)noc3CO)nc2)cn1 [Example 39, 6-[3-(3,4-Difluoro-phenyl)-5-hydroxymethyl-isoxazol-4-ylmethoxy]-N-(1-methyl-1H-pyrazol-4-yl)-nicotinamide]",2.1 nM
10,"CC(C)(C)NC(=O)c1ccc(OCc2c(-c3ccc(F)c(F)c3)noc2CO)nc1 [Example 40, N-tert-Butyl-6-[3-(3,4-difluoro-phenyl)-5-hydroxymethyl-isoxazol-4-ylmethoxy]-nicotinamide]",11.8 nM
11,"O=C(NN1CCOCC1)c1ccc(OCc2c(-c3ccc(F)c(F)c3)noc2CO)nc1 [Example 41, 6-[3-(3,4-Difluoro-phenyl)-5-hydroxymethyl-isoxazol-4-ylmethoxy]-N-morpholin-4-yl-nicotinamide]",1.1 nM
12,"O=C(NN1CCCC1)c1ccc(OCc2c(-c3ccc(F)c(F)c3)noc2CO)nc1 [Example 42, 6-[3-(3,4-Difluoro-phenyl)-5-hydroxymethyl-isoxazol-4-ylmethoxy]-N-pyrrolidin-1-yl-nicotinamide]",4.5 nM
13,"O=C(c1ccc(OCc2c(-c3ccccn3)noc2CO)nc1)N1CCS(=O)(=O)CC1 [Example 43, (1,1-Dioxo-1,6-thiomorpholin-4-yl)-[6-(5-hydroxymethyl-3-pyridin-2-yl-isoxazol-4-ylmethoxy)-pyridin-3-yl]-methanone]",10.8 nM
14,"CC(C)NC(=O)c1ccc(OCc2c(-c3ccccn3)noc2CO)nc1 [Example 44, 6-(5-Hydroxymethyl-3-pyridin-2-yl-isoxazol-4-ylmethoxy)-N-isopropyl-nicotinamide]",0.7 nM
15,"O=C(NC1CCOC1)c1ccc(OCc2c(-c3ccccn3)noc2CO)nc1 (centres unmarked) [Example 45, 6-(5-Hydroxymethyl-3-pyridin-2-yl-isoxazol-4-ylmethoxy)-N-(tetrahydrofuran-3-yl)-nicotinamide]",1.8 nM
16,"CN(C)NC(=O)c1ccc(OCc2c(-c3ccccn3)noc2CO)nc1 [Example 46, 6-(5-Hydroxymethyl-3-pyridin-2-yl-isoxazol-4-ylmethoxy)-nicotinic acid N′,N′-dimethyl-hydrazide]",2.5 nM
17,"O=C(NC1CCOCC1)c1ccc(OCc2c(-c3ccccn3)noc2CO)nc1 [Example 47, 6-(5-Hydroxymethyl-3-pyridin-2-yl-isoxazol-4-ylmethoxy)-N-(tetrahydropyran-4-yl)-nicotinamide]",1.1 nM
18,"O=C(NN1CCOCC1)c1ccc(OCc2c(-c3ccccn3)noc2CO)nc1 [Example 48, 6-(5-Hydroxymethyl-3-pyridin-2-yl-isoxazol-4-ylmethoxy)-N-morpholin-4-yl-nicotinamide]",1.7 nM
19,"CCCCc1noc(CO)c1COc1ccc(C(=O)NC(C)C)cn1 [Example 49, 6-(3-Butyl-5-hydroxymethyl-isoxazol-4-ylmethoxy)-N-isopropyl-nicotinamide]",16 nM
20,"CCCCc1noc(CO)c1COc1ccc(C(=O)NC2(C)COC2)cn1 [Example 50, 6-(3-Butyl-5-hydroxymethyl-isoxazol-4-ylmethoxy)-N-(3-methyloxetan-3-yl)-nicotinamide]",8.7 nM
21,"CCCCc1noc(CO)c1COc1ccc(C(=O)NCC(F)(F)F)cn1 [Example 51, 6-(3-Butyl-5-hydroxymethyl-isoxazol-4-ylmethoxy)-N-(2,2,2-trifluoroethyl)-nicotinamide]",10.2 nM
22,"CCCCc1noc(CO)c1COc1ccc(C(=O)NC2CCC2)cn1 [Example 52, 6-(3-Butyl-5-hydroxymethyl-isoxazol-4-ylmethoxy)-N-cyclobutyl-nicotinamide]",13.7 nM
23,"CCCCc1noc(CO)c1COc1ccc(C(=O)N2CCC2)cn1 [Example 53, Azetidin-1-yl-[6-(3-Butyl-5-hydroxymethyl-isoxazol-4-ylmethoxy)-pyridin-3-yl]-methanone]",51.3 nM
24,"O=C(c1ccc(OCc2c(-c3ccccn3)noc2CO)nc1)N1CCOCC1 [Example 54, [6-(5-Hydroxymethyl-3-pyridin-2-yl-isoxazol-4-ylmethoxy)-pyridin-3-yl]-morpholin-4-yl-methanone]",67.2 nM
25,"CCCCc1noc(CO)c1COc1ccc(C(=O)N2CCS(=O)(=O)CC2)cn1 [Example 55, [6-(3-Butyl-5-hydroxymethyl-isoxazol-4-ylmethoxy)-pyridin-3-yl]-(1,1-dioxo-thiomorpholin-4-yl)-methanone]",50.5 nM
26,"O=C(c1ccc(OCc2c(-c3ccc(F)cn3)noc2CO)nc1)N1CCS(=O)(=O)CC1 [Example 56, (1,1-Dioxo-1,6-thiomorpholin-4-yl)-{6-[3-(5-fluoro-pyridin-2-yl)-5-hydroxymethyl-isoxazol-4-ylmethoxy]-pyridin-3-yl}-methanone]",13.5 nM
